Series [1] concerns male FVB mice, pilocarpine-induced SE. Kind of series: Epilepsy model (pilocarpine-induced status epilepticus mouse model). The series is classed as in vivo. The method, then: Eight- to ten-week-old male FVB mice (22-32 g) received the 1st and 2nd injections of Compound 212320 (at 40 mg/kg in the formulation described above) at 20 and 3 hr prior to induction of seizure with pilocarpine (290 mg/kg, i.p., Sigma). To reduce peripheral cholinergic effects without interfering with the development of SE and chronic seizures, mice received (−) scopolamine methyl nitrate (1.5 mg/kg, Sigma, St. Louis, Mo.) 30 min prior to pilocarpine injection. Control animals were injected with scopolamine followed by saline, instead of pilocarpine. Mice were then observed for 2 hr to record acute seizure severity and latency period. The Racine scale (see Racine, R. J. Modification of seizure activity by electrical stimulation. II. Motor seizure. Electroencephalogr Clin Neurophysiol 32, 281-294 (1972)) was used to rate seizure severity as previously described in Kong, Q., et al. Increased glial glutamate transporter EAAT2 expression reduces epileptogenic processes following pilocarpine-induced status epilepticus. Neurobiol Dis (2012)).
Mice that reached SE and maintained tonic limbic extension for at least 60 min were kept and treated with compound daily for chronic seizure and pathological studies. The SE mice were fed with food soaked in a high sucrose (10%) saline solution to help recovery in the first 3 days after SE. Vehicle-treated SE mice and compound-treated SE littermates were carefully matched based on the body weight, seizure latency, seizure severity, and post-SE sickness.
Chronic seizure activities were recorded by webcam (Logitech, Fremont, Calif.) and reviewed using Windows Live Movie Maker. Daylight periods (9 AM-5 PM) were selected for observations because previous literature indicates a higher frequency of spontaneous recurrent seizures during the day (see Kong, Q., et al. Increased glial glutamate transporter EAAT2 expression reduces epileptogenic processes following pilocarpine-induced status epilepticus. Neurobiol Dis (2012); and Shapiro, L. A., Figueroa-Aragon, S. & Ribak, C. E. Newly generated granule cells show rapid neuroplastic changes in the adult rat dentate gyrus during the first five days following pilocarpine-induced seizures. Eur J Neurosci 26, 583-592 (2007)). At 8 weeks post-SE, brain tissue was harvested from SE mice for cresyl violet staining
Referring to FIG. 3, Compound 212320 reduced mortality rate, spontaneous recurrent seizure and neuronal death following pilocarpine-induced SE. Adult male FVB mice received Compound 212320 (i.p., 40 mg/kg), 3-hr later, were induced seizures with pilocarpine and were then observed for 2 hr to record acute seizure severity and latency period. The Racine scale was used to rate the seizure severity (described above). Mice that reached SE were treated with compound daily and at 4-week post-SE, were recorded chronic seizures for 2 weeks. A total of 15 independent experiments were performed, with a total of 153 vehicle-treated mice and 152 compound 7-4-treated mice. […] FIGS. 3(D-F) show spontaneous recurrent seizure. […] FIGS. 3(G-H) show hippocampal damage.

A short description of series [2]: In vivo pharmacokinetic evaluation in male C57Bl/6 mice (LCMS/MS). Also noted: species or system mouse. The conditions noted are these: ip, single i.p. 3 mg/kg; for half-life: estimated. The method, then: Compound 212320 is compliant with Lipinski rules and lacks functionality that would predict overt toxicity or reactivity. This compound has a low molecular weight (293.38), cLogP value (3.28) and polar surface area (PSA) value (37.08 Å2) in the range typical of compounds that can penetrate the blood brain barrier. We conducted in vivo pharmacokinetic evaluation of LDN 212320 in male C57Bl/6 mice. After a single intraperitoneal (i.p.) administration of Compound 212320 (3 mg/kg), the plasma and brain concentrations were determined over an 8 hr period by LCMS/MS (FIG. 8A). […] The plasma and brain half-lives were estimated to be 2.63 and 2.64 hr, respectively. The average brain-to-plasma ratio was approximately 2 at all time points tested.

The nature of series [3]: Maximum tolerated dose / tolerability study. The series is classed as in vivo. The settings on record: male, C57BL/6, mouse, in vivo, ip; five-day repeat-dose i.p., highest dose tested; read-out: 5-day no observed adverse effect level (NOAEL). The method, then:
(§1) We determined maximum tolerated dose (MTD) of Compound 212320 in male C57BL/6 mice. The study was conducted in two phases: (I) a single dose tolerability study tested at the doses of 10, 25, 50, and 75 mg/kg i.p. (3 mice/dose) and (II) a five-day repeat-dose tolerability study tested at the doses of 10, 25, 50, and 100 mg/kg i.p. (5 mice/dose). […] In the repeat-dose study, body weights were determined prior to each dose and prior to termination on day 6. Clinical pathologies including standard hematology, serum chemistry and coagulation parameters were evaluated on samples collected on day 6. All animals from phase II were necropsied, and selected organs were weighed. […] Due to lack of toxicity, the highest dose tested, 100 mg/kg/day, was determined to be the 5-day no observed adverse effect level (NOAEL) for Compound 212320.

The next series relates to male C57BL/6 mice. Kind of series: Maximum tolerated dose / tolerability study. The conditions noted are these: single dose 10-75 mg/kg and five-day repeat dose 10-100 mg/kg i.p. The series is classed as in vivo. The method, then:
as §1

Another series concerns calcium channel L-type. In words: In vitro side effect profiling: calcium channel L-type. The series is classed as binding. The conditions noted are these: 10 μM, duplicate. The procedure:
To assess Compound 212320's biological activity and selectivity, we performed an in vitro side effect profiling study. Seventy-one targets were tested at 10 μM in duplicate. These targets include neurotransmitter related receptors (30), steroids (2), ion channels (6), second messenger (1), prostaglandins (3), growth factors/hormones (4), brain/gut peptides (13), enzymes (5) and cytochrome p450 (7). […] Additionally, we performed a protein kinase profiling study. Compound 212320 was tested at 1 and 10 μM against 288 kinases. […] These studies indicate that Compound 212320 has high specificity and low side-effects/toxicity potential.

Where two headings read alike, the source gives them in different places.

One may read the half-life as how long it takes for the measured level to halve. Broadly, the Cmax is the highest concentration seen after dosing. The NOAEL is the highest tested level that showed no adverse finding. Take `Cc1ccccc1CSc1ccc(-c2ccccn2)nn1` [Compound 7-4]: the “Hippocampal damage (hilar neuronal loss, cresyl violet)” value in series [1] (8 weeks post-SE) is listed as “significantly attenuated”. Also, the “Chronic seizure frequency (stage V spontaneous recurrent seizures)” value in series [1] (daily treatment, recorded from 4-week post-SE for 2 weeks) is reported as “significantly reduced”. Besides, the results for the “Mortality rate vs vehicle” value in series [1] (day 7 post-SE), in series [1] (day 60 post-SE) and in series [1] (on the day that SE was induced) were “significantly decreased”, “significantly decreased” and “no obvious difference”, respectively. Further, the “Latency to indicated seizure stage vs vehicle” value in series [1] (i.p., 40 mg/kg) is recorded as “not significantly different”. In addition, the “Acute seizure severity (percentage of mice reaching each seizure stage) vs vehicle” value in series [1] (i.p., 40 mg/kg, within 2-hr after pilocarpine) is “not significantly different”. Moreover, in series [2] (male, C57Bl/6, mouse, brain, all time points tested, read-out: average brain-to-plasma ratio), the Kp was about 2. For the same molecule, the half-life is 2.64 h in series [2] (male, C57Bl/6, mouse, brain, read-out: Brain half-life (converted)) and 2.63 h in series [2] (male, C57Bl/6, mouse, plasma, read-out: Plasma half-life (converted)). In series [2] (mouse, in vivo, male C57Bl/6 mice), this molecule had a Cmax of 42.1 ± 3.6 ng/mL. For the same molecule, the NOAEL at 5 day in series [3] is 100 mg/kg/day. Further, in the series on male C57BL/6 mice, the “Clinical signs of toxicity, clinical pathology, body weight” value is “no clinical signs of toxicity”. Further, the “inhibition on calcium channel L-type” value in the series with calcium channel L-type came out at 43%.
